Reference: US20080206367A1, “Morinda Citrifolia-based Formulations and Methods for Weight Management” (priority 2004, published 2008)

Biological target: T1, CCK1 receptor (Rattus norvegicus, UniProt P30551)
T1 construct: from tissue; host or cells: live male rats (in vivo; gastrointestinal tract)
T1 sequence (P30551 1-444): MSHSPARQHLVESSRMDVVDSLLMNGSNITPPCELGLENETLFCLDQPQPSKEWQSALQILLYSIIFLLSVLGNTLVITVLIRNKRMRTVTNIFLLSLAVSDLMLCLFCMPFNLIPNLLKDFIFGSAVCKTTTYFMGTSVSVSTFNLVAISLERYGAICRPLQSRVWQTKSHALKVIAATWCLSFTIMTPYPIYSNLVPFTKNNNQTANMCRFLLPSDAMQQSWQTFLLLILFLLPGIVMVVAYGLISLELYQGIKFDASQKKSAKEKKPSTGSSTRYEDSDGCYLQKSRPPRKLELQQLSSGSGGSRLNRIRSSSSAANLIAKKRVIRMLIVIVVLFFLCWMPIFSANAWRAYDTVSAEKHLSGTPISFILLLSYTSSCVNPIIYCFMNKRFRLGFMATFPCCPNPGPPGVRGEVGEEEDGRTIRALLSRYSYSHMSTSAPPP
Assay: Effects of lorglumide on noni-mediated inhibition of gastric emptying and intestinal transit
Type: in vivo
Details: lorglumide i.p. 15 min before test meal, rats given noni 1 ml/kg orally for 7 days
Procedure: Male rats were divided into four groups and fasted for 24 h before use. Fifteen min before gastric intubation of a non-nutrient liquid meal, the animals were injected i.p. with the following compounds in 1 ml/kg: group 1 received dimethyl sulfoxide (DMSO), […], respectively. Groups 2-4 received 1 ml/kg of noni orally once daily for 7 days.
Gastric emptying and intestinal transit were measured. Rats were intubated via a catheter with physiological saline (3 ml/kg) containing Na2^51CrO4 (0.5 μCi/ml) and 10% charcoal. The test meal was continuously stirred before intubation. Air (0.5 ml) was injected to flush the residual charcoal suspension in the catheter into rat stomach. Fifteen minutes later, the rats were decapitated and the stomach with the attached small intestine was immediately exposed by laparotomy. […] The small intestine was then divided into ten equal segments, and the radioactivity in the stomach and each segment of small intestine was measured in an automatic gamma counter. Gastric emptying was measured by determining the amount of labeled chromium contained in the small intestine fifteen minutes after intubation, expressed as a percentage of the amount given. Intestinal transit was assessed by calculating the geometric center of distribution of the radioactivity within the 10 segments by summation of the radioactivity in each segment multiplied by the segment number.

Noni-induced inhibition of intestinal transit: not altered
Noni-induced inhibition of gastric emptying (P<0.01): significantly prevented
Compound: CCCCCN(CCCCC)C(=O)C(CCC(=O)O)NC(=O)c1ccc(Cl)c(Cl)c1 (centres unmarked) [lorglumide]
